Data reported in ChEMBL document CHEMBL1147286, “7-O-methylhorminone and other cytotoxic diterpene quinones from Lepechinia bullata” (1989).
≈ marks a conversion by molar mass, not a printed value.

Experiments:
KB = assay: Cytotoxicity against human KB cells; assay type: functional; details: read-out: ED50 (the source's name)
P388 = assay: Cytotoxicity against mouse P388 cells; assay type: functional; details: read-out: ED50 (the source's name)

CO[C@@H]1C[C@H]2C(C)(C)CCC[C@]2(C)C2=C1C(=O)C(C(C)C)=C(O)C2=O
EC50 (KB): 13 µg/mL (≈ 37.5 µM)
EC50 (P388): 4.8 µg/mL (≈ 13.9 µM)

CC(C)C1=C(O)C(=O)C2=C(C=C[C@H]3C(C)(C)CCC[C@]23C)C1=O
EC50 (KB): 5.7 µg/mL (≈ 18.1 µM)
EC50 (P388): 1.6 µg/mL (≈ 5.09 µM)

CC(C)C1=C(O)C(=O)C2=C(C1=O)[C@H](O)C[C@H]1C(C)(C)CCC[C@]21C [HORMINONE]
EC50 (KB): 20.2 µg/mL (≈ 60.8 µM)
EC50 (P388): 4.6 µg/mL (≈ 13.8 µM)
